Laboratory results reported in patent publication US12162901B2, “N-acetylated sialic acids and related sialosides” (priority 2016, dated 2024).

Tests used:
[1] = tested on: PToV-P4-Fc (esterase active); test: Treatment of glycan microarray with esterase active PToV, then probe binding; format: biochemical, porcine torovirus; conditions: 20 μg/mL PToV-P4-Fc (esterase active), 2 h, RT; FIG. 3B vs FIG. 3A
Experimental: To assure the quality of the printed slides, one or two slides were used for quality control using antibodies, lectins and serum samples with known glycan binding specificity. For glycan array binding, slides were fitted in a multi-well microarray hybridization cassette (AHC4X8S, ArrayIt, Sunnyvale, CA, USA) to divide into 8 subarrays. The subarrays were blocked with Ovalbumin (1% w/v) in PBS (pH 7.4) for 1 h at RT, with gentle shaking. For the esterase activity studies on the array, after removing the blocking solution, slides were first treated with 20 μg/mL PToV-P4-Fc (esterase active) in blocking buffer for 2 h at RT and then washed with PBS in 0.1% Tween 20 and then PBS (10 min/wash with shaking). Subsequently, diluted protein samples in blocking solution with various concentrations were added to each subarray (both esterase treated and non-treated slides). After incubating the protein samples for 2 h at RT with gentle shaking, the slides were washed with PBS in 0.1% Tween 20 and then PBS (10 min/wash with shaking). […] The data were further analyzed with Excel. […] The binding specificity to glycoconjugates for each protein was plotted based on the RFU (Relative Fluorescence Units), average fluorescence value for 4 replicates, versus glycan IDs. The standard deviations were calculated and the error bars were found for each glycan binding. […]

[2] = tested on: human Siglec-9-Fc (hSiglec-9); test: Sialoglycan microarray binding of human Siglec-9-Fc; conditions: without esterase treatment (FIG. 3A)
Experimental: The synthesized glycan Neu5Ac9NAcα3Galβ4GlcβProNH2 was used in a glycan library for glycan microarray studies. Glycan microarrays were fabricated using epoxide-derivatized slides (Corning by Thermo Fisher Scientific) and Arrayit SpotBot® Extreme Microarray Spotter. The arrays were printed with Stealth SMP3 microarray spotting pins from ArrayIt (Sunnyvale, CA, USA) generating 100 μm diameter spots. 4 pins were used; with each pin printing 4 replicate spots/well. The glycoconjugates were prepared at 100 μM concentration in an optimized printing buffer (300 mM phosphate buffer, pH 8.4). They were then distributed into a 384-well source plate in 20 μL per well. To monitor printing quality, 4 replicate-wells of human IgG (Jackson ImmunoResearch) was used at 100 μg/ml (in PBS) for each printing-pin. One complete array was printed on each slide (within approx 12 hour/˜28 slides). The humidity level in the arraying chamber was maintained at about 60-65% during printing. Printed slides were left on spotter deck overnight, allowing humidity to drop to ambient levels. Printed glycan microarray slides were blocked by 50° C. pre-warmed blocking solution (0.1 M Tris-HCl, 0.05 M ethanolamine, pH 9.0, 1 h). They were then washed twice with 50° C. pre-warmed water and dried. Slides were packed, vacuum-sealed and stored at RT until used.
To assure the quality of the printed slides, one or two slides were used for quality control using antibodies, lectins and serum samples with known glycan binding specificity. For glycan array binding, slides were fitted in a multi-well microarray hybridization cassette (AHC4X8S, ArrayIt, Sunnyvale, CA, USA) to divide into 8 subarrays. The subarrays were blocked with Ovalbumin (1% w/v) in PBS (pH 7.4) for 1 h at RT, with gentle shaking. […] The data were further analyzed with Excel. […] The binding specificity to glycoconjugates for each protein was plotted based on the RFU (Relative Fluorescence Units), average fluorescence value for 4 replicates, versus glycan IDs. The standard deviations were calculated and the error bars were found for each glycan binding. […]

[3] = tested on: porcine torovirus hemagglutinin-esterase (PToV-P4-Fc, esterase inactivated); test: Sialoglycan microarray binding of PToV-P4-Fc (esterase inactive); conditions: without esterase treatment (FIG. 3A)
[4] = De-O-acetylation of 9-OAc glycan during glycan microarray process (DMB derivatization, HPLC); format: physicochemical
BJA-B K20 cells [5] = test: Feeding of free sialic acids to BJA-B K20 cells, DMB derivatization and HPLC of membrane sialic acids; conditions: 1 mM for 3 days; sialic acids released with Vibrio cholerae neuraminidase
human CD22-Fc/Siglec-2 = test: Feeding of free sialic acids to BJA-B K20 cells, probing with human CD22-Fc, flow cytometry; format: cell-based; conditions: 3 mM, 3 days of feeding
Experimental: Cell Culture and Sugar Supplementation.
Flow Cytometry. Cells were washed with PBS and incubated with 10 μg/mL of PToV probes in PBS with 1% BSA and 10 mM EDTA for 30 minutes on ice. Subsequently, cells were washed with PBS and incubated with PE goat anti-human IgG antibody for 30 minutes on ice. After an additional washing step, the cells were analyzed by FACSCalibur (BD).
After 3 days of feeding, BJA-B K20 cells were probed with human CD22-Fc/Siglec-2 to detect ligands (FIG. 7). […] However, when the cells were grown in the presence of Neu5Ac9NAc, the expression of the CD22 ligand was minimal (FIG. 7C). […] This supports previous observations that human CD22-Fc recognizes α2-6-linked sialosides with Neu5Ac or N-glycolylneuraminic acid (Neu5Gc) as the preferred naturally existing sialic acid form and 9-O-acetyl modification on sialic acid blocks the binding.

V. cholerae sialidase = target: T1, V. cholerae sialidase (Vibrio cholerae serotype O1, UniProt P0C6E9); test: Sialidase substrate specificity of Leg glycosides (HPLC/capillary electrophoresis), V. cholerae sialidase; format: biochemical; conditions: pH 5.5
T1 construct: purchased Roche

A. ureafaciens sialidase = test: Sialidase substrate specificity of Leg glycosides (HPLC/capillary electrophoresis), A. ureafaciens sialidase; format: biochemical, Arthrobacter ureafaciens; conditions: pH 5.5
[6] = target: T2, human cytosolic sialidase hNEU2 (Homo sapiens, UniProt Q9Y3R4); test: Sialidase substrate specificity of Leg glycosides (HPLC/capillary electrophoresis), hNEU2; format: biochemical; conditions: 37° C., 16 hs, pH 5.0
T2 construct: made in house

[7] = target: C. perfringens sialidase (CpNanH) (Clostridium perfringens, UniProt P10481); format: biochemical; conditions: 37° C., 16 hs, pH 5.0
SpNanC = SpNanC (Streptococcus pneumoniae, UniProt A0A0H2UQE4); test: Sialidase substrate specificity of Leg glycosides (HPLC/capillary electrophoresis), SpNanC; format: biochemical; conditions: 37° C., 16 hs, pH 6.5
BiNanH2 = target: T3, BiNanH2 (Bifidobacterium longum, UniProt A0ACD7UU12); test: Sialidase substrate specificity of Leg glycosides (HPLC/capillary electrophoresis), BiNanH2; format: biochemical, Bifidobacterium infantis; conditions: 37° C., 16 hs, pH 5.0
T3 sequence (A0ACD7UU12 1-394): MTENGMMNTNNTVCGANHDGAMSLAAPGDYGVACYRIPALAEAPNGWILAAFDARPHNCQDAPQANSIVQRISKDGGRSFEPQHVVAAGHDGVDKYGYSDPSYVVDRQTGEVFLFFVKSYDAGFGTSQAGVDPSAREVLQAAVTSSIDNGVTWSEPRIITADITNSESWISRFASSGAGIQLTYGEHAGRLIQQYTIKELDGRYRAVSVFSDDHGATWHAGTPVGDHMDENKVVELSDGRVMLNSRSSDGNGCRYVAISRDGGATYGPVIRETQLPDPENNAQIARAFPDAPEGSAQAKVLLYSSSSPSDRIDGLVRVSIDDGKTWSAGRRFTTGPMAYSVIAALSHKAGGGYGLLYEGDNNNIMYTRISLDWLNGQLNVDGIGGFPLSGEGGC

SpNanB = target: T4, SpNanB (Streptococcus pneumoniae serotype 4, UniProt Q54727, E68D/K536E/K577E/N393D/S59P); test: Sialidase substrate specificity of Leg glycosides (HPLC/capillary electrophoresis), SpNanB; format: biochemical; conditions: 37° C., 16 hs, pH 6.0
T4 construct: made in house

SpNanA = target: T5, SpNanA (Streptococcus pneumoniae, UniProt P62575); test: Sialidase substrate specificity of Leg glycosides (HPLC/capillary electrophoresis), SpNanA; format: biochemical; conditions: 37° C., 16 hs, pH 6.0
T5 construct: made in house

[8] = target: T6, wild-type PmST1 (α2-3-sialidase activity) (Pasteurella multocida, UniProt Q15KI8); test: Sialidase substrate specificity of Leg glycosides (HPLC/capillary electrophoresis), PmST1; format: biochemical; conditions: 37° C., 16 hs, CMP (0.4 mM), pH 5.5
T6 construct: made in house

BJA-B K20 cells [9] = test: Feeding of free sialic acids to BJA-B K20 cells, PToV probes, flow cytometry; format: cell-based, human
[10] = target: T7, PmST1 (α2-3-sialidase activity) (Pasteurella multocida, UniProt Q15KI8); test: Kinetic studies for PmST1 α2-3-sialidase activity (HPLC); format: biochemical; conditions: 0.4 mM CMP
T7 construct: made in house
Experimental: Kinetic studies for PmST1 were performed in duplicates at 37° C. for 10 min. […] The reactions were stopped by adding 20 μL of pre-chilled ethanol. The mixtures were then centrifuged and the supernatants were analyzed by the HPLC system described above for sialidase substrate specificity studies assays. Apparent kinetic parameters were obtained by varying substrate concentrations from 0.1-40 mM (0.1, 0.2, 0.4, 1, 2, 4, 10, 20, and 40 mM) and fitting the data (the average values of duplicate assay results) into the Michaelis-Menten equation using Grafit 5.0.

T2 sequence (Q9Y3R4 whole entry): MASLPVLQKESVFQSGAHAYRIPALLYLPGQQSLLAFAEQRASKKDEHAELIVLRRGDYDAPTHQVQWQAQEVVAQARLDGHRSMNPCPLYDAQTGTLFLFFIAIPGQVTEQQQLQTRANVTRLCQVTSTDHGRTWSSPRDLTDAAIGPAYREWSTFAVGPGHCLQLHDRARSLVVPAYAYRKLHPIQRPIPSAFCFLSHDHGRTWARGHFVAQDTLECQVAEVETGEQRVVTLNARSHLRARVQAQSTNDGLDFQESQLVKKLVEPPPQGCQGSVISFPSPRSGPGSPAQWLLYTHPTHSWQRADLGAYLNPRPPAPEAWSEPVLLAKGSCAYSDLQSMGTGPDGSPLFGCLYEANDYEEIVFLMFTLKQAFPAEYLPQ

CC(=O)NC[C@@H](O)[C@@H](O)[C@@H]1O[C@@](O[C@H]2[C@@H](O)[C@@H](CO)O[C@@H](O[C@H]3[C@H](O)[C@@H](O)[C@H](OCCCN)O[C@@H]3CO)[C@@H]2O)(C(=O)O)C[C@H](O)[C@H]1NC(C)=O [Neu5Ac9NAcα3Galβ4GlcβProNH2, 3-Aminopropyl O-(5,9-Diacetamido-3,5,9-trideoxy-D-glycero-α-D-galacto-2-nonulopyranosylonic acid)-(2→3)-O-β-D-galactopyranosyl-(1→4)-β-D-glucopyranoside]
stability of the 9-modification towards esterase active PToV [1]: stability of 9NAc
binding of hSiglec-9 on glycan microarray [2]: observable binding
binding of PToV on glycan microarray [3]: prefer binding

CC(=O)N[C@H]1[C@H]([C@H](O)[C@H](O)COC(C)=O)O[C@@](O[C@H]2[C@@H](O)[C@@H](CO)O[C@@H](O[C@H]3[C@H](O)[C@@H](O)[C@H](OCCCN)O[C@@H]3CO)[C@@H]2O)(C(=O)O)C[C@@H]1O [Neu5,9Ac2α3Galβ4GlcβProNH2]
stability of the 9-modification towards esterase active PToV [1]: esterase lability of 9OAc
binding of hSiglec-9 on glycan microarray [2]: observable binding
loss of the OAc group ([4]; AUS treatment followed by DMB derivatization at low temperature (FIG. 2B)): 1.5%
OAc group lost from the 9-position of Neu5Ac or migrated to 7- and 8-positions ([4]; release of sialic acids with acetic acid, DMB derivatization, HPLC (FIG. 2A)): ~45%
sialic acid de-O-acetylated ([4]; standard blocking condition (ethanolamine in Tris-HCl buffer, pH 9.0)): about 5%
OAc group released ([4]; stock solution after three months at −20° C. and a few freeze-thaw cycles): 4%
loss of OAc ([4]; storage in phosphate buffer (pH 8.4) at room temperature): about 3%
binding of PToV on glycan microarray [3]: slightly stronger binding to the 9OAc derivative

CC(=O)N[C@H]1[C@H]([C@H](O)[C@H](O)CO)OC(O)(C(=O)O)C[C@@H]1O (stereo partly drawn) [Neu5Ac, N-acetylneuraminic acid]
incorporation on the cell membrane (DMB-HPLC) (BJA-B K20 cells [5]): showed incorporation
expression of CD22 ligand on fed cells (human CD22-Fc/Siglec-2): high expression of CD22 ligand

C[C@@H](O)[C@@H](N=[N+]=[N-])C1O[C@@](OC2C(O)[C@H](Oc3ccc([N+](=O)[O-])cc3)OC(CO)[C@@H]2O)(C(=O)O)CC(O)[C@H]1N=[N+]=[N-] (stereo partly drawn) [3-13, Leg5,7diN3α2-3GalβpNP]
activity of V. cholerae sialidase for the compound (V. cholerae sialidase): did not show activity
activity of A. ureafaciens sialidase for the compound (A. ureafaciens sialidase): did not show activity
activity of hNEU2 for the compound [6]: did not show activity
activity of C. perfringens sialidase (CpNanH) for the compound [7]: did not show activity
activity of SpNanC for the compound (SpNanC): did not show activity
activity of BiNanH2 for the compound (BiNanH2): did not show activity
activity of SpNanB for the compound (SpNanB): did not show activity
activity of SpNanA for the compound (SpNanA): did not show activity
substrate for the α2-3-sialidase activity of wild-type PmST1 [8]: not

CC(=O)N[C@H]1[C@H]([C@H](O)[C@H](O)COC(C)=O)OC(O)(C(=O)O)C[C@@H]1O (stereo partly drawn) [Neu5,9Ac2, 9-O-acetyl-N-acetylneuraminic acid]
incorporation on the cell membrane (DMB-HPLC) (BJA-B K20 cells [5]): showed incorporation
expression of CD22 ligand on fed cells (human CD22-Fc/Siglec-2): between the two
turnover on cell surface (BJA-B K20 cells [9]; 1 mM for two days, then sugar removed, monitored for 4 days with PToV (esterase inactive) probe): faster than that of Neu5Ac9NAc
cell surface incorporation detected with PToV probe (BJA-B K20 cells [9]; 1 mM free sialic acid, three days of feeding): detected on the cell surface

CC(=O)N[C@@H]1C(O)C[C@](OC2C(O)[C@H](Oc3ccc([N+](=O)[O-])cc3)OC(CO)[C@@H]2O)(C(=O)O)OC1[C@H](NC(C)=O)[C@@H](C)O (stereo partly drawn) [3-19, Leg5,7Ac2α2-3GalβpNP]
activity of V. cholerae sialidase for the compound (V. cholerae sialidase): did not show activity
α2-3-sialidase activity of PmST1, fold less efficient than for Neu5Acα2-3GalβpNP [10]: about 30 fold
activity of A. ureafaciens sialidase for the compound (A. ureafaciens sialidase): did not show activity
activity of hNEU2 for the compound [6]: did not show activity
activity of C. perfringens sialidase (CpNanH) for the compound [7]: did not show activity
activity of SpNanC for the compound (SpNanC): did not show activity
activity of BiNanH2 for the compound (BiNanH2): did not show activity
activity of SpNanB for the compound (SpNanB): did not show activity
activity of SpNanA for the compound (SpNanA): did not show activity

CC(=O)N[C@H]1[C@H]([C@H](O)[C@H](O)CO)O[C@@](O[C@H]2[C@@H](O)[C@@H](CO)O[C@@H](O[C@H]3[C@H](O)[C@@H](O)[C@H](OCCCN)O[C@@H]3CO)[C@@H]2O)(C(=O)O)C[C@@H]1O [Neu5Acα3Galβ4GlcβProNH2]
binding of hSiglec-9 on glycan microarray [2]: prefers binding
